Data as given in patent publication US11332459B2 (TEIJIN PHARMA LIMITED, priority 2017, dated 2022).
Where a name gives a salt, the structure may show the parent alone.

These compounds were tested against T1, human TRPC6 (Homo sapiens, UniProt Q9Y210) (assay: TRPC6 calcium flux assay (FLIPR, OAG-stimulated calcium influx)). Details: HEK293 cells stably transfected with human TRPC6, read-out: hTRPC6 Potency.
T1 construct: expressed in transfected cells
T1 sequence (Q9Y210 1-931): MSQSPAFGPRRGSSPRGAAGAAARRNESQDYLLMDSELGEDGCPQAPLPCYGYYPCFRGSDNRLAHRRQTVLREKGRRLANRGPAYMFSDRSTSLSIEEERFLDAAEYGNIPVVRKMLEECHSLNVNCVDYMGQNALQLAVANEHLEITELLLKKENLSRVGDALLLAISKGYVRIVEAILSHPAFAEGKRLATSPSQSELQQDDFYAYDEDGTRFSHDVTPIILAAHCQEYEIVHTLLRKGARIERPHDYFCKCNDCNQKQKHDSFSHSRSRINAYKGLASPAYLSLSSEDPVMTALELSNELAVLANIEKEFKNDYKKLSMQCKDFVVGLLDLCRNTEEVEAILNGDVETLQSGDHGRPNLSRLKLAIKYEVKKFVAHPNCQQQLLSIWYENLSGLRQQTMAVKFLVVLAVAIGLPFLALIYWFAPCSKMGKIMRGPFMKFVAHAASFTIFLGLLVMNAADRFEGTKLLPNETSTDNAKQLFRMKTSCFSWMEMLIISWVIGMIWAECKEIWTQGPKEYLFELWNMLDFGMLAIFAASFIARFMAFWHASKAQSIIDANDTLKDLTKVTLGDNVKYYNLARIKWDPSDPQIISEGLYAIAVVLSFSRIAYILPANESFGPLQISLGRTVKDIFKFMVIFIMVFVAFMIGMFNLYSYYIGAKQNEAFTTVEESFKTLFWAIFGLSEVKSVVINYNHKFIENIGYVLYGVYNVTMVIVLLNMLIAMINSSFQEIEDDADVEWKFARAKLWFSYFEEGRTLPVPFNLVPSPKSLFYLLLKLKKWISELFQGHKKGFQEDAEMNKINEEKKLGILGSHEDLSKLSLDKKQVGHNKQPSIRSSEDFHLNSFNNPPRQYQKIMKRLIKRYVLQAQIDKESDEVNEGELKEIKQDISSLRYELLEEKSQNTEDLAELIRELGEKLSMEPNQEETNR
Type: cell-based
How it was run: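 IC50 derived by plotting background-corrected peak fluorescence (180 s window, normalized to OAG-triggered signal vs buffer) against dose. Stable human TRPC6 HEK293 line was dye-loaded, exposed to compound 25 min, then challenged with 50 uM final OAG in 2 mM Ca2+ HEPES buffer pH 7.2, 0.5% DMSO.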
For `C[C@@H]1CCN(c2nc3ccccc3n2Cc2ccc(C#N)cc2)C[C@H]1N` [Example 181, 4-((2-((3S,4R)-3-amino-4-methylpiperidin-1-yl)-1H-benzo[d]imidazol-1-yl)methyl)benzonitrile 2,2,2-trifluoroacetate], the IC50 was 0.000907 µM. In the case of `N[C@@H]1CN(c2nc3cc(F)cc(F)c3n2Cc2ncc(F)cn2)CC[C@H]1F` [Example 34, (3R,4R)-1-(5,7-difluoro-1-((5-fluoropyrimidin-2-yl)methyl)-1H-benzo[d]imidazol-2-yl)-4-fluoropiperidin-3-amine], the IC50 is reported as 0.0689 µM. Compound `C[C@@H](c1ccc(Cl)c(Cl)c1)n1c(N2CC[C@@H](F)[C@H](N)C2)nc2cc(F)c(F)cc21` [Example 333, (3R,4R)-1-(1-((1S)-1-(3,4-dichlorophenyl)ethyl)-5,6-difluoro-1H-benzimidazol-2-yl)-4-fluoro-3-piperidinamine] has an IC50 of 3.25 µM. `C[C@H](c1ccc(C#N)cn1)n1c(N2CC[C@@H](F)[C@H](N)C2)nc2cc(C#N)ccc21` [Example 224, 2-((3R,4R)-3-amino-4-fluoropiperidin-1-yl)-1-((R)-1-(5-cyanopyridin-2-yl)ethyl)-1H-benzo[d]imidazole-5-carbonitrile hydrochloride] showed an IC50 of 0.158 µM. `COc1ccc2c(c1)nc(N1CC[C@H](F)[C@H](N)C1)n2Cc1ccc(C#N)cn1` [Example 148, 6-((2-((3R,4S)-3-amino-4-fluoropiperidin-1-yl)-5-methoxy-1H-benzo[d]imidazol-1-yl)methyl)nicotinonitrile hydrochloride] showed an IC50 of 0.0118 µM. Compound `Cc1nc(-c2ccccc2)sc1Cn1c(N2CC[C@@H](F)[C@H](N)C2)nc2cc(F)ccc21` [Example 593, (3R,4R)-4-fluoro-1-(5-fluoro-1-((4-methyl-2-phenylthiazol-5-yl)methyl)-1H-benzo[d]imidazol-2-yl)piperidin-3-amine] has an IC50 of 2.12 µM. Work on `N[C@@H]1CCCN(c2nc3ccccc3n2Cc2ccc(F)c(F)c2)C1` [Example 390, (R)-1-(1-(3,4-difluorobenzyl)-1H-benzo[d]imidazol-2-yl)piperidin-3-amine] yielded an IC50 of 3.57 µM. In the case of `NC(=O)c1cnc(Cn2c(N3CC[C@H](F)[C@H](N)C3)nc3ccc(C(F)(F)F)cc32)cn1` [Example 122, 5-((2-((3R,4S)-3-amino-4-fluoro-1-piperidinyl)-6-(trifluoromethyl)-1H-benzimidazol-1-yl)methyl)-2-pyrazinecarboxamide], the IC50 is reported as 0.0299 µM. `N[C@@H]1CN(c2nc3cc(F)ccc3n2Cc2ncc(Cl)cn2)CC[C@@H]1F` [Example 40, (3R,4S)-1-(1-((5-chloropyrimidin-2-yl)methyl)-5-fluoro-1H-benzo[d]imidazol-2-yl)-4-fluoropiperidin-3-amine] gave an IC50 of 0.00461 µM. With `C[C@H](c1ccc(C#N)cc1)n1c(N2CC[C@@H](F)[C@H](N)C2)nc2ccccc21` [Example 319, 4-((R)-1-(2-((3R,4R)-3-amino-4-fluoropiperidin-1-yl)-1H-benzo[d]imidazol-1-yl)ethyl)benzonitrile hydrochloride] the IC50 was 0.456 µM. Compound `N[C@@H]1CN(c2nc3cc(F)c(F)cc3n2Cc2ccc(F)cn2)CC[C@@H]1F` [Example 304, (3R,4S)-1-(5,6-difluoro-1-((5-fluoropyridin-2-yl)methyl)-1H-benzo[d]imidazol-2-yl)-4-fluoropiperidin-3-amine] has an IC50 of 0.0524 µM. `N#Cc1ccc(Cn2c(N3CCC(F)(F)[C@H](N)C3)nc3c(Cl)cccc32)nc1` [Example 10, (R)-6-((2-(3-amino-4,4-difluoropiperidin-1-yl)-4-chloro-1H-benzo[d]imidazol-1-yl)methyl)nicotinonitrile] was tested, and the IC50 was 0.00606 µM. For `CN(C(=O)Cn1c(N2CC[C@@H](F)[C@H](N)C2)nc2cc(F)c(F)cc21)[C@H]1CC[C@H](O)CC1` [Example 637, 2-(2-((3R,4R)-3-amino-4-fluoropiperidin-1-yl)-5,6-difluoro-1H-benzo[d]imidazol-1-yl)-N-((1r,4R)-4-hydroxycyclohexyl)-N-methylacetamide], the IC50 was 0.341 µM. Compound `CC(c1ccncc1)N(C)C(=O)Cn1c(N2CC[C@@H](F)[C@H](N)C2)nc2cc(F)c(F)cc21` (stereo partly drawn) [Example 613, 2-(2-((3R,4R)-3-amino-4-fluoropiperidin-1-yl)-5,6-difluoro-1H-benzo[d]imidazol-1-yl)-N-methyl-N-(1-(pyridin-4-yl)ethyl)acetamide] has an IC50 of 0.0242 µM. `N[C@@H]1CCCN(c2nc3ccccc3n2Cc2ccc(OC(F)(F)F)cc2)C1` [Example 376, (R)-1-(1-(4-(trifluoromethoxy)benzyl)-1H-benzo[d]imidazol-2-yl)piperidin-3-amine] showed an IC50 of 3.05 µM. With `N#Cc1ccc(Cn2c(N3CC[C@H](F)[C@H](N)C3)nc3c(C(F)(F)F)cccc32)nc1` [Example 91, 6-((2-((3R,4S)-3-amino-4-fluoropiperidin-1-yl)-4-(trifluoromethyl)-1H-benzo[d]imidazol-1-yl)methyl)nicotinonitrile] the IC50 was 0.0329 µM. Compound `N#Cc1ccc(Cn2c(N3CC[C@@H](F)[C@H](N)C3)nc3c(C(F)(F)F)cccc32)nc1` [Example 90, 6-((2-((3R,4R)-3-amino-4-fluoropiperidin-1-yl)-4-(trifluoromethyl)-1H-benzo[d]imidazol-1-yl)methyl)nicotinonitrile] has an IC50 of 0.068 µM. With `COc1ccc2c(c1)nc(N1CC[C@@H](F)[C@H](N)C1)n2CC(=O)N(C)CC(F)(F)F` [Example 449, 2-(2-((3R,4R)-3-amino-4-fluoropiperidin-1-yl)-5-methoxy-1H-benzo[d]imidazol-1-yl)-N-methyl-N-(2,2,2-trifluoroethyl)acetamide] the IC50 was 1.16 µM. `N#Cc1ccc(Cn2c(N3CC[C@H](F)[C@H](N)C3)nc3cc(Cl)ccc32)nc1` [Example 9, 6-((2-((3R,4S)-3-amino-4-fluoropiperidin-1-yl)-5-chloro-1H-benzo[d]imidazol-1-yl)methyl)nicotinonitrile] was tested, and the IC50 was 0.00161 µM. For `CCCN(C)C(=O)Cn1c(N2CC[C@@H](F)[C@H](N)C2)nc2cc(F)c(F)cc21` [Example 616, 2-(2-((3R,4R)-3-amino-4-fluoropiperidin-1-yl)-5,6-difluoro-1H-benzo[d]imidazol-1-yl)-N-methyl-N-propylacetamide], the IC50 was 0.0323 µM. `COc1cccc2c1nc(N1CC[C@@H](F)[C@H](N)C1)n2Cc1ccc(C#N)cn1` [Example 120, 6-((2-((3R,4R)-3-amino-4-fluoro-1-piperidinyl)-4-methoxy-1H-benzimidazol-1-yl)methyl)-3-pyridinecarbonitrile] gave an IC50 of 0.00321 µM. With `CN(CC(F)(F)F)C(=O)Cn1c(N2CC[C@@H](CN)C2)nc2ccc(F)cc21` [Example 491, (S)-2-(2-(3-(aminomethyl)pyrrolidin-1-yl)-6-fluoro-1H-benzo[d]imidazol-1-yl)-N-methyl-N-(2,2,2-trifluoroethyl)acetamide] the IC50 was greater than 3.75 µM. `N#Cc1ccc(Cn2c(N3CCC4CCN[C@@H]4C3)nc3ccccc32)nc1` (stereo partly drawn) [Example 25, 6-((2-((3aS,7aS)-hexahydro-1H-pyrrolo[2,3-c]pyridin-6(2H)-yl)-1H-benzo[d]imidazol-1-yl)methyl)nicotinonitrile] showed an IC50 of 0.21 µM. In the case of `CN(CC(F)(F)F)C(=O)Cn1c(N2CCCC3(CCCN3)C2)nc2ccc(F)cc21` (stereo not shown) [Example 472, 2-(6-fluoro-2-(1,7-diazaspiro[4.5]decan-7-yl)-1H-benzo[d]imidazol-1-yl)-N-methyl-N-(2,2,2-trifluoroethyl)acetamide], the IC50 is reported as 0.383 µM. `Cc1cc2c(cc1Cl)nc(N1CC[C@@H](F)[C@H](N)C1)n2Cc1ccc(C#N)cn1` [Example 113, 6-((2-((3R,4R)-3-amino-4-fluoro-1-piperidinyl)-5-chloro-6-methyl-1H-benzimidazol-1-yl)methyl)-3-pyridinecarbonitrile] showed an IC50 of 0.000286 µM. Work on `N#Cc1ccc(Cn2c(N3CC[C@H](F)[C@H](N)C3)nc3cc(F)cc(F)c32)nc1` [Example 66, 6-((2-((3R,4S)-3-amino-4-fluoropiperidin-1-yl)-5,7-difluoro-1H-benzo[d]imidazol-1-yl)methyl)nicotinonitrile] yielded an IC50 of 0.237 µM. `N[C@@H]1CN(c2nc3cc(F)cc(F)c3n2Cc2ccc(Cl)cn2)CCC1(F)F` [Example 229, (R)-1-(1-((5-chloropyridin-2-yl)methyl)-5,7-difluoro-1H-benzo[d]imidazol-2-yl)-4,4-difluoropiperidin-3-amine hydrochloride] was tested, and the IC50 was 0.0422 µM. `N#Cc1ccc(Cn2c(N3CCC[C@H](N)C3)nc3ccc(C#N)cc32)nc1` [Example 51, (S)-2-(3-aminopiperidin-1-yl)-1-((5-cyanopyridin-2-yl)methyl)-1H-benzo[d]imidazole-6-carbonitrile] showed an IC50 of 0.00647 µM.
